Patent publication US6737383B1, “Herbicidal oxadiazolidines” (priority 1999, dated 2004)

How the values were obtained:
blackgrass = experiment: Test B pre/postemergence blackgrass; assay type: in vivo, Alopecurus myosuroides
In short: (§1)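 Response is a visual 0-to-10 score relative to untreated plants, where 0 means no effect and 10 means complete control, taken twelve to sixteen days after application. Treatments went onto soil at planting and onto foliage of 1- to 4-leaf plants, using a surfactant-containing non-phytotoxic solvent.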

surinam grass = experiment: Test B pre/postemergence surinam grass; assay type: in vivo, Brachiaria decumbens
In short: as §1

cocklebur = experiment: Test B pre/postemergence cocklebur; assay type: in vivo, Xanthium strumarium
In short: as §1

corn = experiment: Test B pre/postemergence corn; assay type: in vivo, Zea mays
In short: as §1

crabgrass = experiment: Test B pre/postemergence crabgrass; assay type: in vivo, Digitaria sanguinalis
In short: as §1

giant foxtail = experiment: Test B pre/postemergence giant foxtail; assay type: in vivo, Setaria faberii
In short: as §1

morningglory = experiment: Test B pre/postemergence morningglory; assay type: in vivo, Ipomoea hederacea
In short: as §1

pigweed = experiment: Test B pre/postemergence pigweed; assay type: in vivo, Amaranthus retroflexus
In short: as §1

rape = experiment: Test B pre/postemergence rape; assay type: in vivo, Brassica napus
In short: as §1

soybean = experiment: Test B pre/postemergence soybean; assay type: in vivo, Glycine max
In short: as §1

sugar beet = experiment: Test B pre/postemergence sugar beet; assay type: in vivo, Beta vulgaris
In short: as §1

velvetleaf = experiment: Test B pre/postemergence velvetleaf; assay type: in vivo, Abutilon theophrasti
In short: as §1

wheat = experiment: Test B pre/postemergence wheat; assay type: in vivo, Triticum aestivum
In short: as §1

wild oat = experiment: Test B pre/postemergence wild oat; assay type: in vivo, Avena fatua
In short: as §1

purple nutsedge = experiment: Test B pre/postemergence purple nutsedge; assay type: in vivo, Cyperus rotundus
In short: as §1

rice = experiment: Test B flood test rice; assay type: in vivo, Oryza sativa
In short: (§2)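 Read-out is a visual response score from 0 (no effect) to 10 (complete control), assigned by comparison with untreated controls. Treatment was applied at the 2-leaf stage, and plants stayed in the greenhouse for twelve to sixteen days before scoring.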

smallflower flatsedge = experiment: Test B flood test smallflower flatsedge; assay type: in vivo, Cyperus difformis
In short: as §2

duck salad = experiment: Test B flood test duck salad; assay type: in vivo, Heteranthera limosa
In short: as §2

bamyardgrass = experiment: Test B flood test barnyardgrass; assay type: in vivo, Echinochloa crus-galli
In short: as §2

[1] = Postemergence, Rate 62 g/ha, scale 0 to 10, 0 is no effect, 10 is complete control
[2] = Postemergence, Rate 125 g/ha, scale of 0 to 10 where 0 is no effect and 10 is complete control
[3] = Postemergence, Rate 250 g/ha, scale of 0 to 10, 0 is no effect, 10 is complete control
[4] = Preemergence, Rate 62 g/ha, scale of 0 to 10 where 0 is no effect and 10 is complete control
[5] = Preemergence, Rate 125 g/ha, scale of 0 to 10 where 0 is no effect and 10 is complete control
[6] = Preemergence, Rate 250 g/ha, scale 0 to 10 (0 no effect, 10 complete control)
[7] = Preemergence, Rate 500 g/ha, scale of 0 to 10 where 0 is no effect and 10 is complete control
[8] = Rate 500 g/ha, Postemergence, scale 0 to 10, 0 is no effect, 10 is complete control
[9] = Rate 62 g/ha, flood test species, Pre-emergence, visual evaluation after twelve to sixteen days
[10] = Rate 125 g/ha, under heading Pre-emergence, flood test species, visual evaluation after twelve to sixteen days
[11] = Rate 250 g/ha, Pre-emergence (flood test species), scale 0 to 10, 0 is no effect, 10 is complete control
[12] = Rate 500 g/ha, Pre-emergence section of Table B, 0 to 10 scale (0 no effect, 10 complete control)

Compound: CC(C)N(C(=O)n1oc(=O)n(C(C)C)c1=O)c1ccncc1 [Compound 663]
- Plant response rating, Blackgrass (blackgrass; [1]): 0
- Blackgrass plant response rating (blackgrass; [2]): 0
- Blackgrass plant response rating (blackgrass; [3]): 0
- Blackgrass plant response rating (blackgrass; [4]): 0
- Blackgrass plant response rating (blackgrass; [5]): 0
- Plant response rating, Blackgrass (blackgrass; [6]): 0
- Plant response rating, Blackgrass (blackgrass; [7]): 0
- Blackgrass plant response rating (blackgrass; [8]): 2
- Plant response rating, B. signalgrass (surinam grass; [1]): 0
- Plant response rating, B. signalgrass (surinam grass; [2]): 0
- B. signalgrass plant response rating (surinam grass; [3]): 0
- B. signalgrass plant response rating (surinam grass; [4]): 0
- B. signalgrass plant response rating (surinam grass; [5]): 0
- Plant response rating, B. signalgrass (surinam grass; [6]): 0
- Plant response rating, B. signalgrass (surinam grass; [7]): 0
- B. signalgrass plant response rating (surinam grass; [8]): 0
- Plant response rating, Cocklebur (cocklebur; [1]): 0
- Cocklebur plant response rating (cocklebur; [2]): 0
- Cocklebur plant response rating (cocklebur; [3]): 0
- Cocklebur plant response rating (cocklebur; [4]): 0
- Cocklebur plant response rating (cocklebur; [5]): 0
- Plant response rating, Cocklebur (cocklebur; [6]): 0
- Plant response rating, Cocklebur (cocklebur; [7]): 0
- Cocklebur plant response rating (cocklebur; [8]): 2
- Plant response rating, Corn (corn; [1]): 0
- Corn plant response rating (corn; [2]): 0
- Corn plant response rating (corn; [3]): 0
- Corn plant response rating (corn; [4]): 0
- Corn plant response rating (corn; [5]): 0
- Plant response rating, Corn (corn; [6]): 0
- Plant response rating, Corn (corn; [7]): 0
- Corn plant response rating (corn; [8]): 0
- Plant response rating, Crabgrass (crabgrass; [1]): 0
- Crabgrass plant response rating (crabgrass; [2]): 0
- Crabgrass plant response rating (crabgrass; [3]): 0
- Crabgrass plant response rating (crabgrass; [4]): 0
- Crabgrass plant response rating (crabgrass; [5]): 0
- Plant response rating, Crabgrass (crabgrass; [6]): 0
- Plant response rating, Crabgrass (crabgrass; [7]): 0
- Crabgrass plant response rating (crabgrass; [8]): 4
- Plant response rating, Giant foxtail (giant foxtail; [1]): 0
- Giant foxtail plant response rating (giant foxtail; [2]): 0
- Giant foxtail plant response rating (giant foxtail; [3]): 0
- Giant foxtail plant response rating (giant foxtail; [4]): 0
- Giant foxtail plant response rating (giant foxtail; [5]): 3
- Plant response rating, Giant foxtail (giant foxtail; [6]): 5
- Plant response rating, Giant foxtail (giant foxtail; [7]): 9
- Giant foxtail plant response rating (giant foxtail; [8]): 4
- Plant response rating, Morningglory (morningglory; [1]): 0
- Morningglory plant response rating (morningglory; [2]): 0
- Morningglory plant response rating (morningglory; [3]): 4
- Morningglory plant response rating (morningglory; [4]): 0
- Morningglory plant response rating (morningglory; [5]): 0
- Plant response rating, Morningglory (morningglory; [6]): 0
- Plant response rating, Morningglory (morningglory; [7]): 7
- Morningglory plant response rating (morningglory; [8]): 4
- Plant response rating, Redroot pigweed (pigweed; [1]): 0
- Redroot pigweed plant response rating (pigweed; [2]): 0
- Redroot pigweed plant response rating (pigweed; [4]): 0
- Redroot pigweed plant response rating (pigweed; [5]): 0
- Plant response rating, Redroot pigweed (pigweed; [6]): 7
- Plant response rating, Redroot pigweed (pigweed; [7]): 7
- Redroot pigweed plant response rating (pigweed; [8]): 0
- Plant response rating, Rape (rape; [1]): 0
- Rape plant response rating (rape; [2]): 0
- Rape plant response rating (rape; [4]): 0
- Rape plant response rating (rape; [5]): 0
- Plant response rating, Rape (rape; [6]): 0
- Plant response rating, Rape (rape; [7]): 4
- Rape plant response rating (rape; [8]): 0
- Soybean plant response rating (soybean; [2]): 0
- Soybean plant response rating (soybean; [4]): 0
- Soybean plant response rating (soybean; [5]): 0
- Plant response rating, Soybean (soybean; [6]): 0
- Plant response rating, Soybean (soybean; [7]): 2
- Plant response rating, Sugarbeets (sugar beet; [1]): 0
- Sugarbeets plant response rating (sugar beet; [2]): 0
- Sugarbeets plant response rating (sugar beet; [4]): 0
- Sugarbeets plant response rating (sugar beet; [5]): 0
- Plant response rating, Sugarbeets (sugar beet; [6]): 0
- Plant response rating, Sugarbeets (sugar beet; [7]): 0
- Sugarbeets plant response rating (sugar beet; [8]): 4
- Plant response rating, Velvetleaf (velvetleaf; [1]): 0
- Velvetleaf plant response rating (velvetleaf; [2]): 0
- Velvetleaf plant response rating (velvetleaf; [4]): 0
- Velvetleaf plant response rating (velvetleaf; [5]): 0
- Plant response rating, Velvetleaf (velvetleaf; [6]): 0
- Plant response rating, Velvetleaf (velvetleaf; [7]): 3
- Velvetleaf plant response rating (velvetleaf; [8]): 2
- Plant response rating, Wheat (wheat; [1]): 0
- Wheat plant response rating (wheat; [2]): 0
- Wheat plant response rating (wheat; [4]): 0
- Wheat plant response rating (wheat; [5]): 0
- Plant response rating, Wheat (wheat; [6]): 0
- Plant response rating, Wheat (wheat; [7]): 3
- Wheat plant response rating (wheat; [8]): 0
- Plant response rating, Wild oats (wild oat; [1]): 0
- Wild oats plant response rating (wild oat; [2]): 0
- Wild oats plant response rating (wild oat; [4]): 0
- Wild oats plant response rating (wild oat; [5]): 0
- Plant response rating, Wild oats (wild oat; [6]): 0
- Plant response rating, Wild oats (wild oat; [7]): 0
- Wild oats plant response rating (wild oat; [8]): 0
- Plant response rating, Nutsedge (purple nutsedge; [1]): 0
- Nutsedge plant response rating (purple nutsedge; [2]): 0
- Nutsedge plant response rating (purple nutsedge; [4]): 0
- Nutsedge plant response rating (purple nutsedge; [5]): 0
- Plant response rating, Nutsedge (purple nutsedge; [6]): 0
- Plant response rating, Nutsedge (purple nutsedge; [7]): 0
- Nutsedge plant response rating (purple nutsedge; [8]): 0
- Plant response rating, Rice (0 to 10 scale, 0 is no effect, 10 is complete control) (rice; [9]): 0
- Rice plant response rating (0 to 10 scale, 0 is no effect, 10 is complete control) (rice; [10]): 0
- Rice plant response rating (rice; [11]): 0
- Rice plant response rating (rice; [12]): 0
- Plant response rating, S. Flatsedge (0 to 10 scale, 0 is no effect, 10 is complete control) (smallflower flatsedge; [9]): 0
- S. Flatsedge plant response rating (0 to 10 scale, 0 is no effect, 10 is complete control) (smallflower flatsedge; [10]): 0
- S. Flatsedge plant response rating (smallflower flatsedge; [11]): 0
- S. Flatsedge plant response rating (smallflower flatsedge; [12]): 0
- Plant response rating, Ducksalad (0 to 10 scale, 0 is no effect, 10 is complete control) (duck salad; [9]): 0
- Ducksalad plant response rating (0 to 10 scale, 0 is no effect, 10 is complete control) (duck salad; [10]): 0
- Ducksalad plant response rating (duck salad; [11]): 0
- Ducksalad plant response rating (duck salad; [12]): 0
- Plant response rating, Barnyardgrass (0 to 10 scale, 0 is no effect, 10 is complete control) (bamyardgrass; [9]): 0
- Barnyardgrass plant response rating (0 to 10 scale, 0 is no effect, 10 is complete control) (bamyardgrass; [10]): 0
- Barnyardgrass plant response rating (bamyardgrass; [11]): 0
- Barnyardgrass plant response rating (bamyardgrass; [12]): 0
